Measurements as given in patent US10047049B2, “Process for preparing pridopidine” (priority 2015, dated 2018).
Converted amounts (≈) assume the structure as drawn.

Tests used:
[1] = cited from earlier work
[2] = assay type: physicochemical
Excerpt: The purity profile of the isolated Compound 9 was better when performing the crystallization from water (Batch 2602 and Batch 2603; both had purities over 99.5%) compared to both crystallization from water/MTBE mixture (purity of 98.5%) and pure MTBE (Batch 2601; purity was 98.5%). The major improvement is removal of early eluting/polar impurities. The yield of the present method may be slightly lower because there will be a small loss of material in the mother liquor. Estimated solubility of Compound 9 in the mother liquor at 5-20° C. is 0.8-0.9% (Batch 2602 and Batch 2603). In the current method this would correspond to 4-5% of the material being lost. This is considered an acceptable loss because of the improved purity of Compound 9.

CCCCCCBr [hexyl bromide]
solubility in water [1]: insoluble in water

CCCN1CCC(O)(c2cccc(SC)c2)CC1 [Compound 9, 4-(3-(methylthio)phenyl)-1-propylpiperidin-4-ol]
Estimated solubility in the mother liquor [2]: 0.8-0.9%

CSc1ccccc1 [TA, thioanisole]
solubility (water) [1]: 500 µg/mL (≈ 4.03 mM)
